Laboratory results from ChEMBL document CHEMBL5154753, “Discovery and Structural Optimization of Toddacoumalone Derivatives as Novel PDE4 Inhibitors for the Topical Treatment of Psoriasis” (J Med Chem, 2022).
Values after ≈ are worked out from the molar mass of the structure shown. Active and inactive are the calls of the source. No cut-off for these calls is given here.

Key:
Mus musculus [1] = species: Mus musculus; assay: Anti-psoriatic activity in IMQ-induced BALB/c psoriasis mouse model assessed as reduction in dermal cell proliferation at 62.5 mg as 4% ointment, TOP daily for 7 days by Ki67+ expression based immunohistochemistry analysis; assay type: functional, organism-based; conditions: time 7.0 day
RAW264.7 [2] = assay: Cytotoxicity against mouse RAW264.7 cells assessed as cell viability incubated for 48 hrs; assay type: toxicity, cell-based; conditions: raw264.7, 48 h
Mus musculus [3] = species: Mus musculus; assay: Anti-psoriatic activity in IMQ-induced BALB/c psoriasis mouse model assessed as reduction IMQ- induced immune response by measuring spleen weight loss at 62.5 mg as 2% ointment, TOP daily and measured upto 7 days; assay type: functional, organism-based; conditions: time <= 7.0 day
Mus musculus [4] = assay: Anti-psoriatic activity in IMQ-induced BALB/c psoriasis mouse model assessed as reduction in erythema score at 10 mg/kg, po for 7 days; assay type: functional, organism-based; conditions: time 7.0 day
[5] = Aqueous solubility of compound by HPLC analysis; assay type: physicochemical; conditions: buffer
Mus musculus [6] = species: Mus musculus; assay: Anti-psoriatic activity in IMQ-induced BALB/c psoriasis mouse model assessed as reduction in erythema score at 62.5 mg as 2% ointment, TOP daily and measured upto 7 days; assay type: functional, organism-based; conditions: time <= 7.0 day, DDE = dose-dependent effect
[7] = target: High affinity cAMP-specific and IBMX-insensitive 3',5'-cyclic phosphodiesterase 8A (Homo sapiens, UniProt O60658); assay: Inhibition of PDE8A1 (480 to 820 residues) (unknown origin) expressed in Escherichia coli BL21 using [3H-GMP] or [3H-AMP] as substrate incubated for 15 mins by liquid scintillation counting method
[8] = C0 in ICR mouse at 10 mg/kg, iv measured upto 24 hrs by LC-MS/MS analysis; assay type: ADME, organism-based; conditions: in vivo
[9] = Toxicity in IMQ-induced BALB/c psoriasis mouse model assessed as body weight loss at 62.5 mg as 2% ointment, TOP daily and measured upto 7 days; conditions: in vivo, topical_or_ocular, 168 h, time < 7 day
Mus musculus [10] = assay: Anti-psoriatic activity in IMQ-induced BALB/c psoriasis mouse model assessed as reduction in thickness score at 10 mg/kg, po for 7 days; assay type: functional, organism-based; conditions: time 7.0 day
[11] = Toxicity in BALB/c mouse assessed as skin lesions at 62.5 mg as 4% ointment, TOP daily and measured upto 7 days; conditions: in vivo, topical_or_ocular, 168 h, time < 7 day
[12] = Stability in human liver microsomes assessed as half life measure upto 45 mins in presence of NADPH by LC-MS analysis; assay type: ADME, Microsome
[13] = Clearance in ICR mouse at 10 mg/kg, iv measured upto 24 hrs by LC-MS/MS analysis; assay type: ADME, organism-based; conditions: in vivo
[14] = Oral bioavailability in ICR mouse at 30 mg/kg measured upto 24 hrs by LC-MS/MS analysis; assay type: ADME, organism-based; conditions: in vivo
Mus musculus [15] = assay: Anti-psoriatic activity in IMQ-induced BALB/c psoriasis mouse model assessed as reduction in total clinical score at 10 mg/kg, po for 7 days; assay type: functional, organism-based; conditions: time 7.0 day
Mus musculus [16] = species: Mus musculus; assay: Anti-psoriatic activity in IMQ-induced BALB/c psoriasis mouse model assessed as change in skin thickness at 62.5 mg as 4% ointment, TOP daily for 7 days by hematoxylin and eosin staining based confocal laser scanning microscopy; assay type: functional, organism-based; conditions: time 7.0 day
[17] = target: High affinity 3',5'-cyclic-AMP phosphodiesterase 7A (Homo sapiens, UniProt Q13946); assay: Inhibition of PDE7A1 (130 to 482 residues) (unknown origin) expressed in Escherichia coli BL21 using [3H-GMP] or [3H-AMP] as substrate incubated for 15 mins by liquid scintillation counting method
[18] = Tmax in ICR mouse at 30 mg/kg, po measured upto 24 hrs by LC-MS/MS analysis; assay type: ADME, organism-based; conditions: in vivo
[19] = Half life in ICR mouse at 30 mg/kg, po measured upto 24 hrs by LC-MS/MS analysis; assay type: ADME, organism-based; conditions: in vivo
Mus musculus [20] = assay: Anti-psoriatic activity in IMQ-induced BALB/c psoriasis mouse model assessed as reduction IMQ- induced immune response by measuring change in spleen weight at 10 mg/kg, po for 7 days; assay type: functional, organism-based; conditions: time 7.0 day
[21] = target: High affinity cGMP-specific 3',5'-cyclic phosphodiesterase 9A (Homo sapiens, UniProt O76083); assay: Inhibition of PDE9A2 (181 to 506 residues) (unknown origin) expressed in Escherichia coli BL21 using [3H-GMP] or [3H-AMP] as substrate incubated for 15 mins by liquid scintillation counting method
Mus musculus [22] = species: Mus musculus; assay: Anti-psoriatic activity in IMQ-induced BALB/c psoriasis mouse model assessed as reduction in thickness score at 62.5 mg as 2% ointment, TOP daily and measured upto 7 days; assay type: functional, organism-based; conditions: time <= 7.0 day, DDE = dose-dependent effect
Mus musculus [23] = species: Mus musculus; assay: Anti-psoriatic activity in IMQ-induced BALB/c psoriasis mouse model assessed as reduction in scales score at 62.5 mg as 2% ointment, TOP daily and measured upto 7 days; assay type: functional, organism-based; conditions: time <= 7.0 day, DDE = dose-dependent effect
[24] = target: Dual specificity calcium/calmodulin-dependent 3',5'-cyclic nucleotide phosphodiesterase 1B (Homo sapiens, UniProt Q01064); assay: Inhibition of PDE1B (10 to 487 residues) (unknown origin) expressed in Escherichia coli BL21 using [3H-GMP] or [3H-AMP] as substrate incubated for 15 mins by liquid scintillation counting method
[25] = Toxicity in BALB/c mouse assessed as skin lesions at 62.5 mg as 2% ointment, TOP daily and measured upto 7 days; conditions: in vivo, topical_or_ocular, 168 h, time < 7 day
[26] = target: cGMP-specific 3',5'-cyclic phosphodiesterase (Homo sapiens, UniProt O76074); assay: Inhibition of PDE5A1 (535 to 860 residues) (unknown origin) expressed in Escherichia coli BL21 using [3H-GMP] or [3H-AMP] as substrate incubated for 15 mins by liquid scintillation counting method
[27] = Toxicity in IMQ-induced BALB/c psoriasis mouse model assessed as body weight loss at 62.5 mg as 4% ointment, TOP daily and measured upto 7 days; conditions: in vivo, topical_or_ocular, 168 h, time < 7 day
[28] = Half life in ICR mouse at 10 mg/kg, iv measured upto 24 hrs by LC-MS/MS analysis; assay type: ADME, organism-based; conditions: in vivo
[29] = Toxicity in BALB/c mouse assessed as body weight loss at 62.5 mg as 4% ointment, TOP daily and measured upto 7 days; conditions: in vivo, topical_or_ocular, 168 h, time < 7 day
[30] = Toxicity in IMQ-induced BALB/c psoriasis mouse model assessed as body weight loss at 10 mg/kg, po for 7 days; assay type: organism-based; conditions: in vivo, 168 h, time 7 day
[31] = target: cGMP-dependent 3',5'-cyclic phosphodiesterase (Homo sapiens, UniProt O00408); assay: Inhibition of PDE2A (580 to 919 residues) (unknown origin) expressed in Escherichia coli BL21 using [3H-GMP] or [3H-AMP] as substrate incubated for 15 mins by liquid scintillation counting method
RAW264.7 [32] = assay: Anti-inflammatory activity against mouse RAW264.7 cells assessed as decrease in LPS-induced TNF-alpha mRNA levels incubated for 4 hrs followed LPS-stimulation for 24 hrs by SYBR green staining based qRT-PCR analysis; assay type: functional, cell-based; conditions: time 28.0 hrs, DDE = dose-dependent effect
RAW264.7 [33] = assay: Anti-inflammatory activity against mouse RAW264.7 cells assessed as decrease in LPS-induced IL-6 mRNA levels incubated for 4 hrs followed LPS-stimulation for 24 hrs by SYBR green staining based qRT-PCR analysis; assay type: functional, cell-based; conditions: time 28.0 hrs, DDE = dose-dependent effect
[34] = AUC (0 to infinity) in ICR mouse at 10 mg/kg, iv measured upto 24 hrs by LC-MS/MS analysis; assay type: ADME, organism-based; set-up: time < 24 hrs, dose 10 mg/kg, route iv; conditions: in vivo

Sequence of High affinity 3',5'-cyclic-AMP phosphodiesterase 7A (Q13946 whole entry, the tested form may be a part): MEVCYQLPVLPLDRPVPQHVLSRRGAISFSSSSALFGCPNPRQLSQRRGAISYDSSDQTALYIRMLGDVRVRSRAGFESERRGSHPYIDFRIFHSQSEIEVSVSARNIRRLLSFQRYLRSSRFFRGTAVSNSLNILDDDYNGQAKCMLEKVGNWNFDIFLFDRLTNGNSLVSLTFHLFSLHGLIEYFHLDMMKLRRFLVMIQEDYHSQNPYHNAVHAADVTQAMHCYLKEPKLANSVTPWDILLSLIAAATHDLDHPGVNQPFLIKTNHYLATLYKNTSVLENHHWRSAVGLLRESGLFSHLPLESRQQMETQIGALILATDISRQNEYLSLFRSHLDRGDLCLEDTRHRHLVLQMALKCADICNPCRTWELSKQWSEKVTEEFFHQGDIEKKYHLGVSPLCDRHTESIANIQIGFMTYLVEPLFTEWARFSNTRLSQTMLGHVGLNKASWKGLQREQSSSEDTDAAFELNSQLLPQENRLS
Sequence of Dual specificity calcium/calmodulin-dependent 3',5'-cyclic nucleotide phosphodiesterase 1B (Q01064 whole entry, the tested form may be a part): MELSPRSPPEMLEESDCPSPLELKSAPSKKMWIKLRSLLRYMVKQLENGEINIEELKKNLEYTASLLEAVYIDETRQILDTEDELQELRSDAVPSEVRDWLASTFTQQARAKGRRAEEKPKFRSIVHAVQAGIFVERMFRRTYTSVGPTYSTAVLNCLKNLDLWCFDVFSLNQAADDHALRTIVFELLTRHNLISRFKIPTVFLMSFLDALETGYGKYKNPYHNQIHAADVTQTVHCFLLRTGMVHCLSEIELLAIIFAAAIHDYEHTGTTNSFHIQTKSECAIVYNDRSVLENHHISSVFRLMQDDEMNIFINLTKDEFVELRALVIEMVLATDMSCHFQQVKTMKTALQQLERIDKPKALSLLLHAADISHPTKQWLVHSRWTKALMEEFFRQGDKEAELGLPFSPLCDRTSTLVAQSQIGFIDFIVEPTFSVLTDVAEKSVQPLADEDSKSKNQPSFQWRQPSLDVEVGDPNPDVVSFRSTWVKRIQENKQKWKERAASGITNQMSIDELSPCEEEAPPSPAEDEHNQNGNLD
Sequence of High affinity cAMP-specific and IBMX-insensitive 3',5'-cyclic phosphodiesterase 8A (O60658 whole entry, the tested form may be a part): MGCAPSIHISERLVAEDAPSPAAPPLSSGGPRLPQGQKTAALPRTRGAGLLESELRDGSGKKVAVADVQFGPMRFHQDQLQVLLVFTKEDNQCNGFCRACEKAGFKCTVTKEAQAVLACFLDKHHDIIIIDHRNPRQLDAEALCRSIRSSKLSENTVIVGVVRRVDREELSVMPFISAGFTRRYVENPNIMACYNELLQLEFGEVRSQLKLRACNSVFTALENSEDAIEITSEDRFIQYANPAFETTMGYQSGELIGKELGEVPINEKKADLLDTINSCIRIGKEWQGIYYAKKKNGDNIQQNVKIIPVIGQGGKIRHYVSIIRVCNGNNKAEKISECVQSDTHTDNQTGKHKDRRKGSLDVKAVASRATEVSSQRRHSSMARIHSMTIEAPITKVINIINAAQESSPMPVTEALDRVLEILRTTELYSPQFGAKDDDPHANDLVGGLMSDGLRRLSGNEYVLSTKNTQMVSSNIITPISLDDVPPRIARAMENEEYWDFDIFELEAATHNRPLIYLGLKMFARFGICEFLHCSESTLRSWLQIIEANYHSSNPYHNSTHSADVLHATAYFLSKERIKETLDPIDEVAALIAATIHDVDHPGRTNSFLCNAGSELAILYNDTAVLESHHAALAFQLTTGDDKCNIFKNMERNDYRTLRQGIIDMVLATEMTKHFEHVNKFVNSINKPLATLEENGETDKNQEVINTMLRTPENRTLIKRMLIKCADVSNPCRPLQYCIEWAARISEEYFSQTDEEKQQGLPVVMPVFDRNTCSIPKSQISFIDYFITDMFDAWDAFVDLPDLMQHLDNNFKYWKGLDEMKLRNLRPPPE
Sequence of High affinity cGMP-specific 3',5'-cyclic phosphodiesterase 9A (O76083 whole entry, the tested form may be a part): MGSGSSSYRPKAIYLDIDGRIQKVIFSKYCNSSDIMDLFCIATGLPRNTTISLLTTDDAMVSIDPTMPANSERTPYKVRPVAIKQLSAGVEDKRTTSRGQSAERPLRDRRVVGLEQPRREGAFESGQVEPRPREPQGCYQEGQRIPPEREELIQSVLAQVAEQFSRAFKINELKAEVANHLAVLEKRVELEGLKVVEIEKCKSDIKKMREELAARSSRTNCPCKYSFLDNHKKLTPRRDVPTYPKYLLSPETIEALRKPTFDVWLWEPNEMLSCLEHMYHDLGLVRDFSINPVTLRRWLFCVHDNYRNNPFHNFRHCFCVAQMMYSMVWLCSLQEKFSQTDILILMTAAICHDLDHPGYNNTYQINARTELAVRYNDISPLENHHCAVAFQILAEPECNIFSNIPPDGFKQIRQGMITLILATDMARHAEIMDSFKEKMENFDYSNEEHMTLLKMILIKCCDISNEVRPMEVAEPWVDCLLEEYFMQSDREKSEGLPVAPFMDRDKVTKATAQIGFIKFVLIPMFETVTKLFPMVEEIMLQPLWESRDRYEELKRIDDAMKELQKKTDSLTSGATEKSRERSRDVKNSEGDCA
Sequence of cGMP-dependent 3',5'-cyclic phosphodiesterase (O00408 whole entry, the tested form may be a part): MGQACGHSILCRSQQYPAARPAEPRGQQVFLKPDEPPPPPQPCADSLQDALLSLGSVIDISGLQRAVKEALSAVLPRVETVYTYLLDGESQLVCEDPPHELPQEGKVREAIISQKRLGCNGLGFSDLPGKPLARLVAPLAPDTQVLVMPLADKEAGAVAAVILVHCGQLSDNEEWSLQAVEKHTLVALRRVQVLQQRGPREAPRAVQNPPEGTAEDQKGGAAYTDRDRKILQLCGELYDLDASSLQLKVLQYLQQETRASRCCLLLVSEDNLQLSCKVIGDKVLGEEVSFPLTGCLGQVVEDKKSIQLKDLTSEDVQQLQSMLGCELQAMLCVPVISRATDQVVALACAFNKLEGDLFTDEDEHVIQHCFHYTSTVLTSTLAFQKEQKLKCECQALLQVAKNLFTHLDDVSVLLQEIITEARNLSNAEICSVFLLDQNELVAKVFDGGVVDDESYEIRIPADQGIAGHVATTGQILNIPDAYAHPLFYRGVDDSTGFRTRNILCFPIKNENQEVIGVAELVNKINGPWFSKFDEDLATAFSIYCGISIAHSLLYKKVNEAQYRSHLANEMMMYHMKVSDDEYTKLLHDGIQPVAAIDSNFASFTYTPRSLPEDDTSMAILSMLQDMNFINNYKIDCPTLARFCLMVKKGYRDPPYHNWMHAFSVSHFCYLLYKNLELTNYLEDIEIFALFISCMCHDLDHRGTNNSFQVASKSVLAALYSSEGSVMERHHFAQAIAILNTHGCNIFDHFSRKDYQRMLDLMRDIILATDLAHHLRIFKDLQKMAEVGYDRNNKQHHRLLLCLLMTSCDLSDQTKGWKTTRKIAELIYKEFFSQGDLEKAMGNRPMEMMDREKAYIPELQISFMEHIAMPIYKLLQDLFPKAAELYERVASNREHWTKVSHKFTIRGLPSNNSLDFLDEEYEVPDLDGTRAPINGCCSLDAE

solubility [5]: 10 µg/mL (≈ 28.1 µM)
IC50 [7]: 820 nM
C0 at 24 h [8]: 20600 ng/mL
half-life [12]: 0.9 min
clearance [13]: 63.8 mL/min/kg
bioavailability [14]: 14.4%
IC50 [17]: 2130 nM
Tmax [18]: 60 min
half-life [19]: 109 min
IC50 [21]: > 10000 nM
IC50 [24]: > 10000 nM
IC50 [26]: 4250 nM
half-life [28]: 55.2 min
IC50 [31]: 1510 nM
AUC(0-inf) [34]: 2620 ng·h/mL
SMILES: CCn1c(=O)c2c(c3ccc(C)nc31)O[C@@](C)(CCO)C[C@H]2C=C(C)C
Activity (Mus musculus [1]): Active
Activity (RAW264.7 [2]): Non-Toxic
Activity (Mus musculus [3]): Active
Activity (Mus musculus [4]): Active
Activity (Mus musculus [6]): Dde
Activity [9]: Non-Toxic
Activity (Mus musculus [10]): Active
Activity [11]: Non-Toxic
Activity (Mus musculus [15]): Active
Activity (Mus musculus [16]): Active
Activity (Mus musculus [20]): Active
Activity (Mus musculus [22]): Dde
Activity (Mus musculus [23]): Dde
Activity [25]: Non-Toxic
Activity [27]: Non-Toxic
Activity [29]: Non-Toxic
Activity [30]: Non-Toxic
Activity (RAW264.7 [32]): Dde
Activity (RAW264.7 [33]): Dde
